# Assay results published in patent US20240366770A1, “DEGRADATION OF BRUTON'S TYROSINE KINASE (BTK) BY CONJUGATION OF BTK INHIBITORS WITH E3 LIGASE LIGAND AND METHODS OF USE” (BeiGene Switzerland GmbH, priority 2021, published 2024).
# pIC50: −log10 of the molar value. Read-outs that look alike come from different tables or passages of the source.
# Columns and labels:
# BTK = target: T1, BTK (Homo sapiens, UniProt Q06187); experiment: BTK degradation in TMD-8 cells (HTRF assay); type: cell-based; details: 6 h treatment, IC50 (DC50) of BTK degradation
# T1 construct: High control=Cell group with added DMSO and without compound, indicating microplate readings without BTK degradation; endogenous in cells; host or cells: TMD-8
# T1 sequence (Q06187 whole entry): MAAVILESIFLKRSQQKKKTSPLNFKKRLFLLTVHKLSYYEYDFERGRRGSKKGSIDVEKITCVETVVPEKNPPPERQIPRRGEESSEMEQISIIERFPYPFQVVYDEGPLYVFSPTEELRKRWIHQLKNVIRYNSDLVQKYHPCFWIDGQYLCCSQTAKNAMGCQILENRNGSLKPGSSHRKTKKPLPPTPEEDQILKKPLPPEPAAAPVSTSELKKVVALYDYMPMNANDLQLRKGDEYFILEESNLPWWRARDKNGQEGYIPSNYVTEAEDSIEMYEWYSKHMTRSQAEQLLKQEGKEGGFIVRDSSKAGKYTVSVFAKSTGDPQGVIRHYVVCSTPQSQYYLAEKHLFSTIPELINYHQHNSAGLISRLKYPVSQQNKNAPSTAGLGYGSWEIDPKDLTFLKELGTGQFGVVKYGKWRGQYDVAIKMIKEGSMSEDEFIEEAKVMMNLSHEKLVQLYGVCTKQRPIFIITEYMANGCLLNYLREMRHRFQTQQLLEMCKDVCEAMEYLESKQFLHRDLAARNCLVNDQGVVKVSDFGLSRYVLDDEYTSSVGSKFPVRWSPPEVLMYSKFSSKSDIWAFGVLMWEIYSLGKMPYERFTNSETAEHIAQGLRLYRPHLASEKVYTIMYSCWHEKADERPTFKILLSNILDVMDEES
# How it was run: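 TMD-8 cells were exposed for 6 h to 8 compound doses (6-fold serial dilution, 0.2% DMSO). Lysed cells were incubated overnight at room temperature with HTRF antibodies and read at 665/620 nm. DC50 came from four-parameter fitting of % inhibition versus concentration.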
# HEK-293 cells = experiment: HEK-293 cytotoxicity detection (CellTiter-Glo); type: cell-based; details: HEK-293 cells, 72 h incubation, CellTiter-Glo luminescence, IC50 of cell proliferation inhibition, read-out: HEK293
# How it was run: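 HEK-293 cells exposed 72 h to an 8-point, 4-fold dilution series (top 500× stock 5 mM in DMSO; 0.2% DMSO final). Viability by CellTiter-Glo luminescence after 10 min at room temperature; IC50 from four-parameter Hill fit of percent inhibition.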
SMILES,DC50 (BTK),pIC50 (HEK-293 cells; Homo sapiens),pIC50 (HEK-293 cells)
"Cc1cc(-c2ncnc3[nH]c4cc(N5CCN(C6CC(c7ccc([C@@H]8CCC(=O)NC8=O)cc7)C6)CC5)ccc4c23)ccc1[C@@H](C)NC(=O)c1nc(C2(C)CC2)no1 (stereo partly drawn) [Example 67, N—((R)-1-(4-(7-(4-(3-(4-((S)-2,6-dioxopiperidin-3-yl)phenyl)cyclobutyl)piperazin-1-yl)-9H-pyrimido[4,5-b]indol-4-yl)-2-methylphenyl)ethyl)-3-(1-methylcyclopropyl)-1,2,4-oxadiazole-5-carboxamide]",1.27 nM,< 5.00,
"COc1cc2c(cc1N1CCN(Cc3ccc4c(c3)n(C)c(=O)n4C3CCC(=O)NC3=O)CC1)[nH]c1ncnc(-c3ccc([C@@H](C)NC(=O)c4nc(C(C)(C)C)no4)c(C)c3)c12 (stereo partly drawn) [Example 69, 3-(tert-butyl)-N-((1R)-1-(4-(7-(4-((1-(2,6-dioxopiperidin-3-yl)-3-methyl-2-oxo-2,3-dihydro-1H-benzo[d]imidazol-5-yl)methyl)piperazin-1-yl)-6-methoxy-9H-pyrimido[4,5-b]indol-4-yl)-2-methylphenyl)ethyl)-1,2,4-oxadiazole-5-carboxamide]",0.266 nM,< 5.00,
"CC(C)(C)c1noc(C(=O)NCC2CCN(c3ncnc4[nH]c5cc(N6CCN(CC7CCN(c8ccc(N9CCC(=O)NC9=O)cc8)CC7)CC6)ccc5c34)CC2)n1 [Example 70, 3-(tert-butyl)-N-((1-(7-(4-((1-(4-(2,4-dioxotetrahydropyrimidin-1(2H)-yl)phenyl)piperidin-4-yl)methyl)piperazin-1-yl)-9H-pyrimido[4,5-b]indol-4-yl)piperidin-4-yl)methyl)-1,2,4-oxadiazole-5-carboxamide]",140 nM,5.70,
"COc1cc2c(cc1N1CCN(Cc3ccc4c(c3)C(C)(C)C(=O)N4C3CCC(=O)NC3=O)CC1)[nH]c1ncnc(-c3ccc([C@@H](C)NC(=O)c4nc(C5(C)CC5)no4)c(C)c3)c12 (stereo partly drawn) [Example 74, N-((1R)-1-(4-(7-(4-((1-(2,6-dioxopiperidin-3-yl)-3,3-dimethyl-2-oxoindolin-5-yl)methyl)piperazin-1-yl)-6-methoxy-9H-pyrimido[4,5-b]indol-4-yl)-2-methylphenyl)ethyl)-3-(1-methylcyclopropyl)-1,2,4-oxadiazole-5-carboxamide]",2.04 nM,< 5.00,
"Cc1c([C@@H](C)NC(=O)c2noc(C(C)(C)C)n2)ccc(-c2ncnc3[nH]c4cc(N5CCN(Cc6ccc7c(c6)n(C6CCC(=O)NC6=O)c(=O)n7C)CC5)ccc4c23)c1F (stereo partly drawn) [Example 78, 5-(tert-butyl)-N-((1R)-1-(4-(7-(4-((3-(2,6-dioxopiperidin-3-yl)-1-methyl-2-oxo-2,3-dihydro-1H-benzo[d]imidazol-5-yl)methyl)piperazin-1-yl)-9H-pyrimido[4,5-b]indol-4-yl)-3-fluoro-2-methylphenyl)ethyl)-1,2,4-oxadiazole-3-carboxamide]",> 2000 nM,< 5.00,
"Cc1c([C@@H](C)NC(=O)c2noc(C(C)(C)C)n2)ccc(-c2ncnc3[nH]c4cc(N5CCN(Cc6ccc7c(c6)C6(CC6)C(=O)N7C6CCC(=O)NC6=O)CC5)ccc4c23)c1F (stereo partly drawn) [Example 79, 5-(tert-butyl)-N-((1R)-1-(4-(7-(4-((1′-(2,6-dioxopiperidin-3-yl)-2′-oxospiro[cyclopropane-1,3′-indolin]-5′-yl)methyl)piperazin-1-yl)-9H-pyrimido[4,5-b]indol-4-yl)-3-fluoro-2-methylphenyl)ethyl)-1,2,4-oxadiazole-3-carboxamide]",15.9 nM,< 5.00,
"Cc1c([C@@H](C)NC(=O)c2noc(C(C)(C)C)n2)ccc(-c2ncnc3[nH]c4cc(N5CCN(CCc6ccc(SC7CCC(=O)NC7=O)cc6)CC5)ccc4c23)c1F (stereo partly drawn) [Example 80, 5-(tert-butyl)-N-((1R)-1-(4-(7-(4-(4-((2,6-dioxopiperidin-3-yl)thio)phenethyl)piperazin-1-yl)-9H-pyrimido[4,5-b]indol-4-yl)-3-fluoro-2-methylphenyl)ethyl)-1,2,4-oxadiazole-3-carboxamide]",16.6 nM,< 5.00,

# Further lines, with some results ahead:
DC50 (BTK),SMILES,pIC50 (HEK-293 cells; Homo sapiens),pIC50 (HEK-293 cells)
4.1 nM,"Cc1c([C@@H](C)NC(=O)c2nc(C3(C)CC3)no2)ccc(-c2ncnc3[nH]c4cc(N5CCN(C6CC(c7ccc([C@H]8CCC(=O)NC8=O)cc7)C6)CC5)ccc4c23)c1F (stereo partly drawn) [Example 66, N—((R)-1-(4-(7-(4-(3-(4-((R)-2,6-dioxopiperidin-3-yl)phenyl)cyclobutyl)piperazin-1-yl)-9H-pyrimido[4,5-b]indol-4-yl)-3-fluoro-2-methylphenyl)ethyl)-3-(1-methylcyclopropyl)-1,2,4-oxadiazole-5-carboxamide]",< 5.00,
1.6 nM,"Cc1cc(-c2ncnc3[nH]c4cc(N5CCN(C6CC(c7ccc([C@@H]8CCC(=O)NC8=O)cc7)C6)CC5)ccc4c23)ccc1[C@@H](C)NC(=O)c1nc(C2(C)CC2)no1 (stereo partly drawn) [Example 68, N—((R)-1-(4-(7-(4-(3-(4-((S)-2,6-dioxopiperidin-3-yl)phenyl)cyclobutyl)piperazin-1-yl)-9H-pyrimido[4,5-b]indol-4-yl)-2-methylphenyl)ethyl)-3-(1-methylcyclopropyl)-1,2,4-oxadiazole-5-carboxamide]",,< 5.00
9.24 nM,"COc1cc2c(cc1N1CCN(Cc3ccc4c(c3)n(C)c(=O)n4C3CCC(=O)NC3=O)CC1)[nH]c1ncnc(-c3ccc([C@@H](C)NC(=O)c4nc(C(C)(C)C)no4)c(C)c3F)c12 (stereo partly drawn) [Example 71, 3-(tert-butyl)-N-((1R)-1-(4-(7-(4-((1-(2,6-dioxopiperidin-3-yl)-3-methyl-2-oxo-2,3-dihydro-1H-benzo[d]imidazol-5-yl)methyl)piperazin-1-yl)-6-methoxy-9H-pyrimido[4,5-b]indol-4-yl)-3-fluoro-2-methylphenyl)ethyl)-1,2,4-oxadiazole-5-carboxamide]",< 5.00,
15.9 nM,"COc1cc2c(cc1N1CCN(C3CC(c4ccc([C@H]5CCC(=O)NC5=O)cc4)C3)CC1)[nH]c1ncnc(-c3ccc([C@@H](C)NC(=O)c4nc(C5(C)CC5)no4)c(C)c3F)c12 (stereo partly drawn) [Example 72, N—((R)-1-(4-(7-(4-(3-(4-((R)-2,6-dioxopiperidin-3-yl)phenyl)cyclobutyl)piperazin-1-yl)-6-methoxy-9H-pyrimido[4,5-b]indol-4-yl)-3-fluoro-2-methylphenyl)ethyl)-3-(1-methylcyclopropyl)-1,2,4-oxadiazole-5-carboxamide]",< 5.00,
1.27 nM,"COc1cc2c(cc1N1CCN(Cc3ccc4c(c3)C(C)(C)C(=O)N4C3CCC(=O)NC3=O)CC1)[nH]c1ncnc(-c3ccc([C@@H](C)NC(=O)c4nc(C(C)(C)C)no4)c(C)c3)c12 (stereo partly drawn) [Example 73, 3-(tert-butyl)-N-((1R)-1-(4-(7-(4-((1-(2,6-dioxopiperidin-3-yl)-3,3-dimethyl-2-oxoindolin-5-yl)methyl)piperazin-1-yl)-6-methoxy-9H-pyrimido[4,5-b]indol-4-yl)-2-methylphenyl)ethyl)-1,2,4-oxadiazole-5-carboxamide]",< 5.00,
> 2000 nM,"COc1cc2c(cc1N1CCN(Cc3ccc(SC4CCC(=O)NC4=O)cc3)CC1)[nH]c1ncnc(-c3ccc([C@@H](C)NC(=O)c4nc(C(C)(C)C)no4)c(C)c3)c12 (stereo partly drawn) [Example 75, 3-(tert-butyl)-N-((1R)-1-(4-(7-(4-(4-((2,6-dioxopiperidin-3-yl)thio)benzyl)piperazin-1-yl)-6-methoxy-9H-pyrimido[4,5-b]indol-4-yl)-2-methylphenyl)ethyl)-1,2,4-oxadiazole-5-carboxamide]",< 5.00,
1.6 nM,"COc1cc2c(cc1N1CCN(Cc3ccc4c(c3)C3(CC3)C(=O)N4C3CCC(=O)NC3=O)CC1)[nH]c1ncnc(-c3ccc([C@@H](C)NC(=O)c4nc(C(C)(C)C)no4)c(C)c3)c12 (stereo partly drawn) [Example 76, 3-(tert-butyl)-N-((1R)-1-(4-(7-(4-((1′-(2,6-dioxopiperidin-3-yl)-2′-oxospiro[cyclopropane-1,3′-indolin]-5′-yl)methyl)piperazin-1-yl)-6-methoxy-9H-pyrimido[4,5-b]indol-4-yl)-2-methylphenyl)ethyl)-1,2,4-oxadiazole-5-carboxamide]",< 5.00,
8.48 nM,"COc1cc2c(cc1N1CCN(Cc3ccc(SC4CCC(=O)NC4=O)cc3)CC1)[nH]c1ncnc(-c3ccc([C@@H](C)NC(=O)c4nc(C5(C)CC5)no4)c(C)c3)c12 (stereo partly drawn) [Example 77, N-((1R)-1-(4-(7-(4-(4-((2,6-dioxopiperidin-3-yl)thio)benzyl)piperazin-1-yl)-6-methoxy-9H-pyrimido[4,5-b]indol-4-yl)-2-methylphenyl)ethyl)-3-(1-methylcyclopropyl)-1,2,4-oxadiazole-5-carboxamide]",< 5.00,
> 2000 nM,"CN1CCN(CC2CCN(c3ncnc4[nH]c5cc(N6CCN(CC7CCN(c8ccc(N9CCC(=O)NC9=O)cc8)CC7)CC6)ccc5c34)CC2)C1=O [Example 81, 1-(4-(4-((4-(4-(4-((3-methyl-2-oxoimidazolidin-1-yl)methyl)piperidin-1-yl)-9H-pyrimido[4,5-b]indol-7-yl)piperazin-1-yl)methyl)piperidin-1-yl)phenyl)dihydropyrimidine-2,4(1H,3H)-dione]",< 5.00,
3.17 nM,"Cc1c([C@@H](C)NC(=O)c2noc(C(C)(C)C)n2)ccc(-c2ncnc3[nH]c4cc(N5CCN(CCc6cccc7c6n(C)c(=O)n7C6CCC(=O)NC6=O)CC5)ccc4c23)c1F (stereo partly drawn) [Example 82, 5-(tert-butyl)-N-((1R)-1-(4-(7-(4-(2-(1-(2,6-dioxopiperidin-3-yl)-3-methyl-2-oxo-2,3-dihydro-1H-benzo[d]imidazol-4-yl)ethyl)piperazin-1-yl)-9H-pyrimido[4,5-b]indol-4-yl)-3-fluoro-2-methylphenyl)ethyl)-1,2,4-oxadiazole-3-carboxamide]",< 5.00,
